Measured values taken from patent publication US4918099A, “Drug, preparation and use thereof” (priority 1985, dated 1990).
“Also recorded” adds a separate entry of the source.

Assays:
[1] = Increase of the peripheral insulin action in diabetic mice; format: in vivo
Procedure: Diabetic mice were divided into a control group and a test group. A dose of 100 mg of brazilin per kg body weight was daily administered to the animals of the test group; instead of brazilin, the same amount of saline solution was injected intraperitoneally to the animals of the control group.
After 30 test days, the body weight of the animals of the test group was higher and the blood sugar values of these animals were lower as compared to the diabetic animals of the control group.
On the 30th test day, the animals were made to fast for 5 h; thereupon, they were injected intravenously with 0.46 mU/g of NPH insulin. Then, the blood sugar values were measured at respective intervals of 5 min.

[2] = system: blood viscosity; assay: Blood viscosity; format: in vivo, rats
Procedure: Increased blood viscosity and reduced erythrocyte deformability are typical pathological states of diabetic subjects. The effect of brazilin administration to diabetic laboratory animals (rats) on the blood viscosity and erythrocyte deformability of these animals was examined.
For administering brazilin, the laboratory animals were daily injected intraperitoneally with a dose of 100 mg of brazilin per kg body weight for 10 days. For inducing diabetes, a dose of 175 mg of alloxan per kg body weight was administered intraperitoneally.
The blood viscosity was determined by means of heparinized blood samples relative to distilled water at 37°±0.5° C. The time interval required by 2 ml of liquid to pass between two points of a narrow glass capillary was determined.

[3] = system: fat pads isolated from rats; assay: Lipogenesis: esterified lipids and free fatty acids in fat pads isolated from rats; format: in vivo
Procedure: With (a) untreated (normal) control animals (rats), (b) diabetic rats, and (c) diabetic brazilin treated rats glucose oxidation and lipogenesis were investigated (by means of the esterified lipids and the free fatty acids). Diabetes was induced by intravenous administration of streptozotocin (40 mg/kg live weight). Brazilin was administered intraperitoneally for 15 days (100 mg/kg body weight). Within the same period the same volume of saline solution was administered to the untreated animals of the control group.
The effects of additional brazilin administration on lipogenesis were determined by means of the esterified lipids and free fatty acids formed from 1-^14 C-glucose. The measurements were carried out according to established methods.

[4] = Comparison of synthetic substances with full extract; conditions: synthetically prepared substance
[5] = Blood sugar lowering effect of brazilin in streptozotocin diabetic SD rats; format: in vivo
Procedure: By intraperitoneally administering streptozotocin (70 mg per 1 kg body weight in 0.1M of citrate buffer solution, pH 4.0) diabetes was induced in SD rats. 20 days after the injection of streptozotocin the blood sugar values of the laboratory animals were measured. The hyperglycemic rats were divided into two groups, viz. into a control group and a test group. For 10 days a dose of 110 mg of brazilin per kg body weight was daily administered to the animals of the test group. Then, the blood sugar values were measured again.

[6] = system: prostacyclin production; assay: Prostacyclin production (6-keto PGF alpha); format: in vivo, rats
Procedure: (§1) If an inhibiting action on MDA is detectable but no significant influence on the prostacyclin production can be detected, a selective inhibiting action on thromboxane A2 may be inferred.
(§2) Rats were divided into four test groups, viz.
(§3) Group B: Normal rats (8 laboratory animals) to which an aqueous brazilin solution (comprising 110 mg of brazilin per kg body weight) was daily administered from the 20th to the 30th day
(§4) Group D: Diabetic rats (10 laboratory animals); for inducing diabetes, a dose of 70 mg of streptozotocin per kg body weight in 0.1M citrate buffer solution (pH 4.0) was administered intraperitoneally to normal rats on the 1st test day. From the 20th to the 30th day of the test aqueous brazilin solution (comprising 110 mg of brazilin per kg body weight) was daily administered orally to these diabetic rats. (Instead of an aqueous brazilin solution, the same amount of distilled water was administered to the laboratory animals of the groups A and C from the 20th to the 30th day.)
(§5) After expiration of the 30th test day, the test animals were sacrificed, and the MDA production was determined by means of thrombin stimulated platelets.

[7] = Body weight and blood sugar of the rats of the MDA test; format: in vivo; conditions: on 30th day
Procedure: as §2, §3, §4

[8] = system: thrombin stimulated platelets; assay: Malon dialdehyde (MDA) production by thrombin stimulated platelets; format: in vivo, rats
Excerpt: Thromboxane A2 is the potent substance inducing platelet aggregation. MDA is formed through the same enzyme system as thromboxane A2. Inhibition of MDA production may be due to the following factors:
as §1, §2, §3, §4, §5

[9] = Planta Med. 31, 214-220 (1977); cited from earlier work
[10] = diabetic mice, 100 mg/kg daily, 30 days

With `Oc1ccc2c(c1)OC[C@]1(O)Cc3cc(O)c(O)cc3[C@H]21` [brazilin] the “blood sugar after i.v. NPH insulin” value ([1]; brazilin treated diabetic mice, 0.46 mU/g NPH insulin, day 30, 5 h fasted (FIG. 5)) was “marked decrease of the blood sugar values”, the “blood sugar values vs. diabetic control” value [1, 10] was “lower” and the “body weight vs. diabetic control” value [1, 10] was “higher”. The Viscosity ([2]; alloxan diabetic rats + brazilin, P < 0.05 vs. diabetic control (1.62)) was 1.52 ± 0.07 cP, the “effect on blood viscosity of diabetic animals” value ([2]; diabetic rats vs. control group) was “significant decrease of the blood viscosity; also recorded: significant decrease (P<0.05) of blood viscosity” and the “effect on blood viscosity of normal animals” value ([2]; normal + brazilin vs. normal) was “No statistical differences”. For the same compound, the Viscosity ([2]; normal rats + brazilin 100 mg/kg i.p. 10 days, 37° C., normal 1.45) was 1.40 ± 0.06 cP, the “effect on the production of free fatty acids” value ([3]; basal and insulin stimulated) was “In none of the two cases additional administration of brazilin has any significant effect” and the “restoration of initial production of esterified lipids, basal” value ([3]; diabetic rats + brazilin) was 24.7%. For the same compound, the “restoration of initial production of esterified lipids, insulin stimulated” value ([3]; diabetic rats + brazilin, insulin 25 ng/ml) was 19.8%, the “Glucose→FFA (free fatty acids), basal” value ([3]; diabetic rats + brazilin, n=6, not significant vs diabetic control, diabetic 2.60, normal 3.18) was 1.83 ± 0.43 nmol/100 mg tissue/120 min and the “Glucose→E.L. (esterified lipids), basal” value ([3]; diabetic rats + brazilin, n=10, P < 0.01 vs. diabetic control, diabetic 78.8, normal 220.8) was 113.9 ± 9.5 nmol/100 mg tissue/120 min. For the same compound, the “Glucose→FFA (free fatty acids), insulin stimulated” value ([3]; insulin 25 ng/ml, n=6, not significant vs diabetic control, diabetic 3.73, normal 8.42) was 3.39 ± 0.76 nmol/100 mg tissue/120 min, the “Glucose→E.L. (esterified lipids), insulin stimulated” value ([3]; insulin 25 ng/ml, n=9, P < 0.1 vs diabetic control, diabetic 276.5, normal 528.0) was 326.2 ± 18.4 nmol/100 mg tissue/120 min and the “effects compared with administration of major amounts of full extract” value [4] was “substantially has the same effects”. The “Blood sugar” value ([5]; diabetic rats, 30 days after onset of diabetes, 110 mg/kg daily 10 days, before treatment (20 days) 266 ± 16.7, diabetic control 337 ± 45.6) was 165 ± 42.7 mg/100 ml, the “Blood sugar” value ([5]; normal rats, brazilin treated, 30 days, normal control 79 ± 22.2) was 77 ± 20.3 mg/100 ml and the “lowering of the blood sugar values” ([5]; streptozotocin diabetic rats, 110 mg/kg daily) was “significant lowering of the blood sugar values”. For the same compound, the “6-Keto PG F α” value ([6]; diabetic rats + brazilin, diabetic control 0.19) was 0.18 ± 0.03 ng/mg, the “6-Keto PG F α” value ([6]; normal rats + brazilin, normal control 0.18) was 0.17 ± 0.02 ng/mg and the “influence on the prostacyclin production” value ([6]; rats) was “no influence on the prostacyclin production could be observed”. It also gave a Blood sugar ([7]; Group B (normal + brazilin), normal control 79) of 77 ± 20.3 mg/100 ml, a Body weight ([7]; Group B (normal + brazilin), normal control 222) of 226 ± 24.4 g and a Blood sugar ([7]; Group D (diabetic + brazilin), 266 on 20th day, diabetic control 337) of 165 ± 42.7 mg/100 ml. For the same compound, the Body weight ([7]; Group D (diabetic + brazilin), diabetic control 185) was 206 ± 9.61 g, the MDA ([8]; Group B, thrombin 0,2 I. un., normal control 4.16) was 0.58 ± 0.30 nmol/10 platelets and the MDA ([8]; Group B, thrombin 1,0 I. un., normal control 2.46) was 1.02 ± 0.48 nmol/10 platelets. The MDA ([8]; Group D, thrombin 0,2 I. un., diabetic control 2.86) was 0.76 ± 0.21 nmol/10 platelets, the MDA ([8]; Group D, thrombin 1,0 I. un., diabetic control 3.38) was 1.10 ± 0.31 nmol/10 platelets and the MDA ([8]; normal rats + brazilin 110 mg/kg daily (Group B), thrombin 5,0 I. un., normal control 5.16) was 2.20 ± 0.58 nmol/10 platelets. For the same compound, the “inhibition of MDA production” value ([8]; rats, 110 mg/kg daily) was “inhibiting effect on MDA production” and the anti-inflammatory effect [9] was “anti-inflammatory effect”.
